Like-named read-outs stand apart in the source and are kept apart here. Each block holds one compound with its values, some of them ahead of it.
Experiments:
[1] = system: TNF-α production in LPS-stimulated human whole blood; test: Inhibition of TNF-α production from human whole blood (hWBA); type: cell-based; conditions: LPS-stimulated human whole blood, read-out: hWBA
[2] = Area under the curve determination of plasma levels in rats (rrAUC); type: in vivo; conditions: rat, oral 10 mg/kg
[3] = plasma 0.5-6 h, read-out: RR AUC (nM · h), rapid rat AUC (rrAUC)
[4] = IC50 for inhibition of TNF-α production
[5] = plasma 0.5-6 h post-dosing, read-out: RR AUC

IC50 ([1]; IC50 for TNF-α production): 258 nM
AUC [2, 3]: 0.768 µM·h
Compound: COc1ccc2c(c1)C(=O)N(C[C@@]1(C#Cc3ccc(C(O)(O)C(F)(F)F)cc3)NC(=O)NC1=O)C2 [Compound 2252]

IC50 [1, 4]: 2950 nM
AUC [2, 5]: 7.59 µM·h
Compound: COc1ccc2c(c1)C(=O)N(C[C@@]1(C#Cc3ccc4c(C)n[nH]c4c3)NC(=O)NC1=O)C2 [Compound 723]

IC50 ([1]; IC50 for TNF-α production): 238 nM
AUC [2, 3]: 0.024 µM·h
Compound: CCN1CCN(Cc2ccc(C#C[C@]3(CN4Cc5ccc(OC)cc5C4=O)NC(=O)NC3=O)cc2)CC1 [Compound 933]

IC50 [1, 4]: 125 nM
AUC [2, 5]: 0.034 µM·h
Compound: CCN1CCN(Cc2ccc(C#C[C@]3(CN4Cc5ccc(OC)c(F)c5C4=O)NC(=O)NC3=O)cc2)CC1 [Compound 974]

IC50 ([1]; IC50 for TNF-α production): 2430 nM
AUC [2, 3]: 4.14 µM·h
Compound: COc1ccc2c(c1)C(=O)N(C[C@@]1(C#Cc3ccc(-c4noc(C)n4)cc3)NC(=O)NC1=O)C2 [Compound 2253]

IC50 ([1]; IC50 for TNF-α production): 398 nM
AUC [2, 3]: 0.438 µM·h
Compound: COc1ccc2c(c1)C(=O)N(C[C@@]1(C#Cc3ccc(C4(C)NC(=O)NC4=S)cc3)NC(=O)NC1=O)C2 (stereo partly shown) [Compound 2258]

IC50 ([1]; IC50 for TNF-α production): 100 nM
AUC [2, 3]: 0.058 µM·h
Compound: COc1ccc2c(c1)C(=O)N(C[C@@]1(C#Cc3ccc(C(=NO)N4CCOCC4)cc3)NC(=O)NC1=O)C2 [Compound 941]

Continued, compound first:

Compound: COc1ccc2c(c1F)C(=O)N(C[C@@]1(C#Cc3ccc(C)nc3)NC(=O)NC1=O)C2 [Compound 2274]
IC50 ([1]; IC50 for TNF-α production): 396 nM
AUC [2, 3]: 16.4 µM·h

Compound: COc1ccc2c(c1)C(=O)N(C[C@@]1(C#Cc3ccc(-c4c(C)nn(C)c4C)nc3)NC(=O)NC1=O)C2 [Compound 2268]
IC50 ([1]; IC50 for TNF-α production): 9030 nM
AUC [2, 3]: 1.07 µM·h

Compound: COc1ccc2c(c1)C(=O)N(C[C@@]1(C#Cc3ccc(C(=NO)c4ccc(F)cc4)cc3)NC(=O)NC1=O)C2 [Compound 2245]
IC50 ([1]; Homo sapiens, IC50 for inhibition of TNF-α production): 954 nM
AUC [2, 5]: 1.07 µM·h

Compound: COc1ccc2c(c1F)C(=O)N(C[C@@]1(C#Cc3cccnc3C)NC(=O)NC1=O)C2 [Compound 2273]
IC50 ([1]; IC50 for TNF-α production): 193 nM
AUC [2, 3]: 2.89 µM·h

Compound: COc1ccc2c(c1F)C(=O)N(C[C@@]1(C#Cc3ccc4c(c3)CCC43NC(=O)NC3=O)NC(=O)NC1=O)C2 (stereo partly shown) [Compound 2214]
IC50 [1, 4]: 186 nM
AUC [2, 5]: 3.46 µM·h

Compound: COc1ccc2c(c1)C(=O)N(C[C@@]1(C#Cc3ccc(-c4cc[nH]n4)nc3)NC(=O)NC1=O)C2 [Compound 2235]
IC50 [1, 4]: 231 nM
AUC [2, 5]: 0.23 µM·h

Compound: COc1ccc2c(c1)C(=O)N(C[C@@]1(C#Cc3ccc(-c4ccccc4O)nc3)NC(=O)NC1=O)C2 [Compound 2277]
IC50 ([1]; IC50 for TNF-α production): 2090 nM
AUC [2, 3]: 0.271 µM·h

Compound: COc1ccc2c(c1)C(=O)N(C[C@@]1(C#Cc3ccc4c(c3)CCCC43NC(=O)NC3=O)NC(=O)NC1=O)C2 (stereo partly shown) [Compound 2312]
IC50 ([1]; IC50 for TNF-α production): 137 nM
AUC [2, 3]: 0.014 µM·h

Compound: COc1ccc2c(c1F)C(=O)N(C[C@@]1(C#Cc3ccc(N4C(=O)CCC4C(=O)NC4CC4)cc3)NC(=O)NC1=O)C2 (stereo partly shown) [Compound 1904]
IC50 [1, 4]: 278 nM
AUC [2, 5]: 0.213 µM·h

Compound: COc1ccc2c(c1Cl)C(=O)N(CC1(C#Cc3cccnc3)NC(=O)NC1=O)C2 (stereo not shown) [Compound 2247]
IC50 [1, 4]: 1000 nM
AUC [2, 5]: 0.38 µM·h

From patent publication US8541572B2
